Among the test systems are UACC-62; NCI-H522; HCT-116; NCI-H460; DU-145; 786-0; SK-MEL-5; RXF 393; CAKI-1; MCF7; HOP-62; A498; RPMI-8226; IGROV-1; TK-10; HL-60; MDA-N; SNB-75; HT-29; SR.
What all share (test): NCI-60 cell line screen, 48 h

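Five concentrations, 48 hours, 96-well plates. At the GI50, growth is halved.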 Activity calls are given as the source filed them. Cut-off read from the data, not from the text of the source: active = GI50 up to about 1.1 µM and inactive = higher. Where a SMILES comes first, the peptide text is derived from it. [ ]: non-standard residue; d: D form. Phe(4-NO2) = N[CH](Cc1ccc([N+](=O)[O-])cc1)C(=O)O A value given as a limit tells only on which side of the number the result lay.

Turning to `COC(=O)C1=C(C(=O)OC)SC2(S1)C(C(=O)OC)=C(C(=O)OC)Sc1c2ssc1=O`, the GI50 was 0.526 µM (active) in the test with UACC-62; 0.177 µM (active) in the test on NCI-H522; 0.459 µM (active) in the test with HCT-116; 2.88 µM (inactive) in the test with NCI-H460; 0.877 µM (active) in the test on DU-145; 0.456 µM (active) in the test on 786-0. The GI50 was 1.21 µM (inactive) with SK-MEL-5; 1.08 µM (active) in the test with RXF 393; 1.43 µM (inactive) in the test with CAKI-1; 1.26 µM (inactive) in the test on MCF7; 1.83 µM (inactive) with HOP-62; 1.64 µM (inactive) in the test on A498. The GI50 in the test with RPMI-8226 is 0.982 µM (active); in the test with IGROV-1 it was 1.65 µM (inactive); in the test on TK-10, 1.58 µM (inactive); in the test on HL-60, 0.016 µM (active); with MDA-N it was 1.66 µM (inactive); with SNB-75, 4.01 µM (inactive). Further, the GI50 in the test with HT-29 was 0.585 µM (active).
In the case of `NNC(=O)c1nnn(CCc2ccccc2)c1C(=O)NN`, the GI50 in the test on HCT-116, in the test on NCI-H460, with SR, in the test with DU-145, in the test with 786-0 and with SK-MEL-5 was > 100 µM (inactive) each time. For the same compound, the GI50 in the test with CAKI-1 is > 100 µM (inactive); in the test on MCF7, > 100 µM (inactive); in the test on HOP-62 it was > 100 µM (inactive); in the test with RPMI-8226, > 100 µM (inactive); in the test with TK-10, 68.2 µM (inactive); in the test on HL-60, > 100 µM (inactive). Also, the GI50 in the test on MDA-N and in the test on HT-29 was > 100 µM (inactive) in each case.
As to `COc1cc(/C=N\c2nc(-c3ccc(NS(=O)(=O)c4ccc(Cl)c(OC)c4)cc3)cs2)ccc1O`, the GI50 is 9.71 µM (inactive) with UACC-62; 18.8 µM (inactive) in the test on NCI-H522; 37.7 µM (inactive) in the test on HCT-116; 30.8 µM (inactive) with SR; > 100 µM (inactive) in the test with DU-145; > 100 µM (inactive) in the test with 786-0. Besides, the GI50 in the test on SK-MEL-5 was 62.8 µM (inactive); in the test with RXF 393, 27.9 µM (inactive); with CAKI-1, > 100 µM (inactive); with MCF7, 21 µM (inactive); in the test on HOP-62, > 100 µM (inactive); in the test on RPMI-8226, 21 µM (inactive). Besides, the GI50 in the test with IGROV-1 was 43.3 µM (inactive); in the test with HL-60, 26.1 µM (inactive); with MDA-N, 29.6 µM (inactive); with SNB-75, 89.5 µM (inactive); in the test on HT-29, > 100 µM (inactive).
For `CC(=O)OCc1cc(OC(C)=O)c2cc3c(OC(C)=O)cccc3c(OC(C)=O)c2c1`, the GI50 in the test on UACC-62 is 13.3 µM (inactive); with HCT-116, 19.7 µM (inactive); in the test with NCI-H460 it was 5.65 µM (inactive); in the test on SR, 19.5 µM (inactive); in the test with DU-145, 16.7 µM (inactive); in the test with 786-0, 13 µM (inactive). For the same compound, the GI50 in the test on SK-MEL-5 is 11.2 µM (inactive); in the test on MCF7 it was 12.8 µM (inactive); with HOP-62 it was 16.9 µM (inactive); with A498 it was 11.2 µM (inactive); in the test with RPMI-8226 it was 11.2 µM (inactive); with IGROV-1, 14.5 µM (inactive). In addition, the GI50 in the test with TK-10 was 12.7 µM (inactive); in the test with HL-60, 9.51 µM (inactive); with MDA-N it was 17.1 µM (inactive); in the test with SNB-75, 22.3 µM (inactive); with HT-29, 14.8 µM (inactive).
In the case of `O=C1C(NS(=O)(=O)c2ccccc2)=C(n2cnc3ccccc32)C(=O)c2ccccc21`, the GI50 in the test with UACC-62 is 47.3 µM (inactive); in the test with NCI-H522, 0.187 µM (active); in the test on HCT-116, > 100 µM (inactive); with NCI-H460, > 100 µM (inactive); in the test with SR it was > 100 µM (inactive); with DU-145, > 100 µM (inactive). For the same compound, the GI50 was 60.4 µM (inactive) in the test on 786-0; > 100 µM (inactive) with SK-MEL-5; 16 µM (inactive) with RXF 393; > 100 µM (inactive) in the test on CAKI-1; > 100 µM (inactive) with MCF7; 32.4 µM (inactive) with HOP-62. In addition, the GI50 in the test on RPMI-8226 was 50.5 µM (inactive); with IGROV-1, 52.8 µM (inactive); with TK-10 it was 89.3 µM (inactive); in the test with HL-60, > 100 µM (inactive); in the test with MDA-N it was > 100 µM (inactive); in the test on SNB-75, 30.3 µM (inactive). The GI50 in the test on HT-29 was > 100 µM (inactive).
Take `CCN1CC2=C(NC(=S)NC2c2ccc(Cl)cc2)/C(=C/c2ccc(Cl)cc2)C1` (stereo not drawn): the GI50 is 29.3 µM (inactive) in the test with UACC-62; > 100 µM (inactive) with NCI-H522; 62.5 µM (inactive) in the test on HCT-116; 18.5 µM (inactive) in the test on NCI-H460; > 100 µM (inactive) with DU-145; 45.6 µM (inactive) with 786-0. Moreover, the GI50 with SK-MEL-5 was 97.7 µM (inactive); with RXF 393, > 100 µM (inactive); in the test on CAKI-1 it was 35.7 µM (inactive); with MCF7 it was > 100 µM (inactive); in the test with HOP-62, > 100 µM (inactive); in the test with A498, 23 µM (inactive). In addition, the GI50 with RPMI-8226 was 17.5 µM (inactive); in the test on IGROV-1 it was 42 µM (inactive); in the test on TK-10, > 100 µM (inactive); with HL-60, 23.7 µM (inactive); in the test with MDA-N, > 100 µM (inactive); with SNB-75 it was 23.1 µM (inactive). In addition, the GI50 in the test on HT-29 was > 100 µM (inactive).
Turning to `O=C1c2ccccc2C(=O)N1C(=S)c1ccccc1`, the GI50 in the test with UACC-62, in the test on NCI-H522, in the test on HCT-116, in the test on NCI-H460, with SR and in the test on DU-145 was > 100 µM (inactive) in each case. Further, the GI50 with 786-0, in the test with SK-MEL-5, with RXF 393, in the test on CAKI-1, in the test on MCF7 and in the test with HOP-62 was > 100 µM (inactive) each time. The GI50 in the test with RPMI-8226, in the test with IGROV-1, with TK-10, in the test on HL-60, in the test on MDA-N and in the test with SNB-75 was > 100 µM (inactive) each time. Also, in the test on HT-29, the GI50 is > 100 µM (inactive).
Consider `CC[C@@H]1CSC(/C=C/C2OC3OC(C)(C)OC3C3OC(C)(C)OC23)=N1` (stereo partly drawn), for which the GI50 was 13.9 µM (inactive) with UACC-62; 3.18 µM (inactive) in the test with NCI-H522; 3.5 µM (inactive) in the test with HCT-116; 21.5 µM (inactive) with NCI-H460; 3.89 µM (inactive) in the test on SR; 2.27 µM (inactive) in the test on DU-145. The GI50 with 786-0 was 3.98 µM (inactive); in the test with SK-MEL-5, 6.67 µM (inactive); in the test with RXF 393 it was 3.4 µM (inactive); with CAKI-1 it was 11.1 µM (inactive); with MCF7, 4.58 µM (inactive); in the test with HOP-62 it was 22.9 µM (inactive). For the same compound, the GI50 in the test with RPMI-8226 was 5.78 µM (inactive); in the test on IGROV-1, 10.3 µM (inactive); in the test on TK-10, 3.78 µM (inactive); in the test with HL-60, 2.34 µM (inactive); in the test with MDA-N, 4.5 µM (inactive); in the test with SNB-75 it was 15 µM (inactive). Also, the GI50 in the test with HT-29 was 3.94 µM (inactive).
On to `COC(=O)CCC(NC(=O)C(CCC(=O)OC)NC(=O)C(CCC(=O)OC)NC(=O)C(CCC(=O)OC)NC(=O)C(CCC(=O)OC)NC(=O)C(Cc1ccc([N+](=O)[O-])cc1)NC(=O)C(CCC(=O)OC)NC(=O)C(CCC(=O)OC)NC(=O)C(CCC(=O)OC)NC(=O)C(CCC(=O)OC)NC(=O)C(CCC(=O)OC)NC(C)=O)C(N)=O` (stereo not drawn) (Ac-E(OMe)E(OMe)E(OMe)E(OMe)E(OMe)[Phe(4-NO2)]E(OMe)E(OMe)E(OMe)E(OMe)E(OMe)-NH2; configuration not given here), for which the GI50 in the test on UACC-62 is > 10 µM (inactive); with NCI-H522, > 100 µM (inactive); with HCT-116, > 100 µM (inactive); in the test on NCI-H460, > 100 µM (inactive); in the test on SR it was > 100 µM (inactive); with DU-145, > 100 µM (inactive). The GI50 is > 100 µM (inactive) in the test with 786-0; 26.1 µM (inactive) in the test with SK-MEL-5; > 100 µM (inactive) with RXF 393; > 100 µM (inactive) in the test on CAKI-1; > 100 µM (inactive) in the test with MCF7; > 100 µM (inactive) in the test on RPMI-8226. Moreover, the GI50 in the test on IGROV-1, in the test with TK-10, with MDA-N, in the test on SNB-75 and in the test on HT-29 was > 100 µM (inactive) throughout.
As for `CC(=O)O[C@H]1C(=O)[C@@]2(C)[C@H]([C@H](OC(=O)c3ccccc3)[C@]3(O)C[C@H](OC(=O)[C@H](O)[C@@H](NC(=O)c4ccccc4)c4ccccc4)C(C)=C1C3(C)C)[C@]1(OC(C)=O)CO[C@@H]1C[C@@H]2O` [PACLITAXEL], the GI50 was 0.00419 µM (active) in the test with UACC-62; 0.00464 µM (active) in the test with NCI-H522; 0.00268 µM (active) in the test with HCT-116; 0.00296 µM (active) in the test with NCI-H460; 0.0239 µM (active) with DU-145; 0.0337 µM (active) in the test with 786-0. The GI50 in the test on SK-MEL-5 is 0.00388 µM (active); in the test on RXF 393, 0.00649 µM (active); in the test on CAKI-1 it was 0.203 µM (active); in the test with MCF7, 0.00292 µM (active); in the test with HOP-62 it was 0.0129 µM (active); with A498 it was 0.107 µM (active). Also, the GI50 in the test with RPMI-8226 was 0.00267 µM (active); with IGROV-1, 0.00708 µM (active); in the test with TK-10 it was 0.113 µM (active); in the test with HL-60 it was 0.00427 µM (active); with MDA-N, 0.00307 µM (active); with HT-29, 0.00273 µM (active).

(Values after ChEMBL document CHEMBL1201862, “PubChem BioAssay data set” (2004).)
